# Test results: PubChem BioAssay AID2060909 (Molecular Pharmacology Branch, DTP, NCI, 2025)
# Test system: 362531-283-R-J2-PDC complex spheroid viability
# Experiment: Anticancer human tumor 362531-283-R-J2-PDC patient-derived colon adenocarcinoma cell line growth inhibition [RAS]
# Settings: for IC50: curve of first compound; for viability, T/C: stronger effect = lower value
# Procedure, shortened: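 Multi-cell-type spheroids: tumor cells plus HUVEC endothelial cells and mesenchymal stem cells. RAS-pathway inhibitors were combined with targeted agents, each dosed in half-log steps down from clinical Cmax, or from 10 microM when Cmax was unknown.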
# [1] = second compound 0.000949 µM, first compound 0.0316 µM
# [2] = second compound 0.000949 µM, first compound 0.1 µM
# [3] = second compound 0.000949 µM, first compound 0.316 µM
# [4] = second compound 0.000949 µM, first compound 1 µM
# [5] = second compound 0.003 µM, first compound 0.0316 µM
# [6] = second compound 0.003 µM, first compound 0.1 µM
# [7] = second compound 0.003 µM, first compound 0.316 µM
# [8] = second compound 0.003 µM, first compound 1 µM
# [9] = second compound 0.00949 µM, first compound 0.0316 µM
# [10] = second compound 0.00949 µM, first compound 0.1 µM
# [11] = second compound 0.00949 µM, first compound 0.316 µM
# [12] = second compound 0.00949 µM, first compound 1 µM
# [13] = second compound 0.03 µM, first compound 0.0316 µM
# [14] = second compound 0.03 µM, first compound 0.1 µM
# [15] = second compound 0.03 µM, first compound 0.316 µM
# [16] = second compound 0.03 µM, first compound 1 µM
# [17] = second compound 0.0949 µM, first compound 0.0316 µM
# [18] = second compound 0.0949 µM, first compound 0.1 µM
# [19] = second compound 0.0949 µM, first compound 0.316 µM
# [20] = second compound 0.0949 µM, first compound 1 µM
# [21] = second compound 0.3 µM, first compound 0.0316 µM
# [22] = second compound 0.3 µM, first compound 0.1 µM
# [23] = second compound 0.3 µM, first compound 0.316 µM
# [24] = second compound 0.3 µM, first compound 1 µM
# 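Note: spheroids exposed to the agents for 7 days before readout.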
# 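Throughout, for viability, T/C: luminescence viability as percent of DMSO vehicle control wells.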
smiles,measurement,setting,value
Nc1ccn(C2OC(CO)C(O)C2(F)F)c(=O)n1 (stereo unspecified) + CCn1c(-c2cccnc2C(C)OC)c2c3cc(ccc31)N1CCOC(CC(NC(=O)C(C(C)C)N(C)C(=O)C3(F)CCN(C(=O)C#CC(C)(C)N(C)C)CC3)C(=O)N3CCCC(N3)C(=O)OCC(C)(C)C2)C1,IC50,second compound 0.000949 µM,169 nM
same,IC50,second compound 0.003 µM,153 nM
same,IC50,second compound 0.00949 µM,177 nM
same,IC50,second compound 0.03 µM,189 nM
same,IC50,second compound 0.0949 µM,132 nM
same,IC50,second compound 0.3 µM,163 nM
same,"viability, T/C","second compound 0.000949 µM, first compound 0.00316 µM",100%
same,"viability, T/C","second compound 0.000949 µM, first compound 0.01 µM",95.5%
same,"viability, T/C",[1],69.5%
same,"viability, T/C",[2],77.3%
same,"viability, T/C",[3],22.2%
same,"viability, T/C",[4],31.3%
same,"viability, T/C","second compound 0.003 µM, first compound 0.00316 µM",103%
same,"viability, T/C","second compound 0.003 µM, first compound 0.01 µM",92.9%
same,"viability, T/C",[5],77.6%
same,"viability, T/C",[6],68.5%
same,"viability, T/C",[7],22.9%
same,"viability, T/C",[8],33.2%
same,"viability, T/C","second compound 0.00949 µM, first compound 0.00316 µM",103%
same,"viability, T/C","second compound 0.00949 µM, first compound 0.01 µM",93.2%
same,"viability, T/C",[9],73.4%
same,"viability, T/C",[10],77.4%
same,"viability, T/C",[11],19.2%
same,"viability, T/C",[12],25.5%
same,"viability, T/C","second compound 0.03 µM, first compound 0.00316 µM",111%
same,"viability, T/C","second compound 0.03 µM, first compound 0.01 µM",83.5%
same,"viability, T/C",[13],86.8%
same,"viability, T/C",[14],82.2%
same,"viability, T/C",[15],20.1%
same,"viability, T/C",[16],27.6%
same,"viability, T/C","second compound 0.0949 µM, first compound 0.00316 µM",100%
same,"viability, T/C","second compound 0.0949 µM, first compound 0.01 µM",91.7%
same,"viability, T/C",[17],69.5%
same,"viability, T/C",[18],69.6%
same,"viability, T/C",[19],19.7%
same,"viability, T/C",[20],26.8%
same,"viability, T/C","second compound 0.3 µM, first compound 0.00316 µM",96.2%
same,"viability, T/C","second compound 0.3 µM, first compound 0.01 µM",90%
same,"viability, T/C",[21],73.3%
same,"viability, T/C",[22],69.2%
same,"viability, T/C",[23],23.2%
same,"viability, T/C",[24],24.2%
NC1c2ccccc2OC12CCN(c1cnc3c(N4CCCc5ncccc54)n[nH]c3n1)CC2 (stereo unspecified) + CCn1c(-c2cccnc2C(C)OC)c2c3cc(ccc31)N1CCOC(CC(NC(=O)C(C(C)C)N(C)C(=O)C3(F)CCN(C(=O)C#CC(C)(C)N(C)C)CC3)C(=O)N3CCCC(N3)C(=O)OCC(C)(C)C2)C1,IC50,second compound 0.000949 µM,5440 nM
same,IC50,second compound 0.003 µM,> 10000 nM
same,IC50,second compound 0.00949 µM,7500 nM
same,IC50,second compound 0.03 µM,6810 nM
same,IC50,second compound 0.0949 µM,5870 nM
same,IC50,second compound 0.3 µM,> 10000 nM
same,"viability, T/C",[1],91.7%
same,"viability, T/C",[2],86.7%
same,"viability, T/C",[3],76.7%
same,"viability, T/C",[4],72.8%
same,"viability, T/C","second compound 0.000949 µM, first compound 3.16 µM",54.8%
same,"viability, T/C","second compound 0.000949 µM, first compound 10 µM",43%
same,"viability, T/C",[5],94.8%
same,"viability, T/C",[6],87.5%
same,"viability, T/C",[7],75%
same,"viability, T/C",[8],66.8%
same,"viability, T/C","second compound 0.003 µM, first compound 3.16 µM",63.3%
same,"viability, T/C","second compound 0.003 µM, first compound 10 µM",52%
same,"viability, T/C",[9],86.6%
same,"viability, T/C",[10],88.5%
same,"viability, T/C",[11],71.3%
same,"viability, T/C",[12],80.3%
same,"viability, T/C","second compound 0.00949 µM, first compound 3.16 µM",69.9%
same,"viability, T/C","second compound 0.00949 µM, first compound 10 µM",43.2%
same,"viability, T/C",[13],95.8%
same,"viability, T/C",[14],74.2%
same,"viability, T/C",[15],77.4%
same,"viability, T/C",[16],76.4%
same,"viability, T/C","second compound 0.03 µM, first compound 3.16 µM",65.6%
same,"viability, T/C","second compound 0.03 µM, first compound 10 µM",41.3%
same,"viability, T/C",[17],95.3%
same,"viability, T/C",[18],85.2%
same,"viability, T/C",[19],79%
same,"viability, T/C",[20],74.3%
same,"viability, T/C","second compound 0.0949 µM, first compound 3.16 µM",56.4%
same,"viability, T/C","second compound 0.0949 µM, first compound 10 µM",42.8%
same,"viability, T/C",[21],87.8%
same,"viability, T/C",[22],75.6%
same,"viability, T/C",[23],76.9%
same,"viability, T/C",[24],67.4%
same,"viability, T/C","second compound 0.3 µM, first compound 3.16 µM",57.7%
same,"viability, T/C","second compound 0.3 µM, first compound 10 µM",53.1%
NC1c2ccccc2OC12CCN(c1cnc3c(N4CCCc5ncccc54)n[nH]c3n1)CC2 (stereo unspecified) + C#Cc1c(F)ccc2cc(O)cc(-c3ncc4c(N5CC6CCC(C5)N6)nc(OCC56CCCN5CC(F)C6)nc4c3F)c12,IC50,second compound 0.0316 µM,354 nM
same,IC50,second compound 0.1 µM,175 nM
same,IC50,second compound 0.316 µM,75.2 nM
same,IC50,second compound 1 µM,35.8 nM
same,IC50,second compound 3.16 µM,< 31.6 nM
same,IC50,second compound 10 µM,< 31.6 nM
same,"viability, T/C","second compound 0.0316 µM, first compound 0.0316 µM",98.7%
same,"viability, T/C","second compound 0.0316 µM, first compound 0.1 µM",73.2%
same,"viability, T/C","second compound 0.0316 µM, first compound 0.316 µM",60.9%
same,"viability, T/C","second compound 0.0316 µM, first compound 1 µM",10.6%
same,"viability, T/C","second compound 0.0316 µM, first compound 3.16 µM",5.23%
same,"viability, T/C","second compound 0.0316 µM, first compound 10 µM",1.84%
same,"viability, T/C","second compound 0.1 µM, first compound 0.0316 µM",79.7%
same,"viability, T/C","second compound 0.1 µM, first compound 0.1 µM",78.1%
same,"viability, T/C","second compound 0.1 µM, first compound 0.316 µM",20.7%
same,"viability, T/C","second compound 0.1 µM, first compound 1 µM",7.72%
same,"viability, T/C","second compound 0.1 µM, first compound 3.16 µM",6.1%
same,"viability, T/C","second compound 0.1 µM, first compound 10 µM",1.33%
same,"viability, T/C","second compound 0.316 µM, first compound 0.0316 µM",84.2%
same,"viability, T/C","second compound 0.316 µM, first compound 0.1 µM",38.8%
same,"viability, T/C","second compound 0.316 µM, first compound 0.316 µM",9.03%
same,"viability, T/C","second compound 0.316 µM, first compound 1 µM",6.67%
same,"viability, T/C","second compound 0.316 µM, first compound 3.16 µM",5.3%
same,"viability, T/C","second compound 0.316 µM, first compound 10 µM",1.76%
same,"viability, T/C","second compound 1 µM, first compound 0.0316 µM",54.7%
same,"viability, T/C","second compound 1 µM, first compound 0.1 µM",12.8%
same,"viability, T/C","second compound 1 µM, first compound 0.316 µM",10.8%
same,"viability, T/C","second compound 1 µM, first compound 1 µM",6.95%
same,"viability, T/C","second compound 1 µM, first compound 3.16 µM",5.9%
same,"viability, T/C","second compound 1 µM, first compound 10 µM",1.83%
same,"viability, T/C","second compound 3.16 µM, first compound 0.0316 µM",25.5%
same,"viability, T/C","second compound 3.16 µM, first compound 0.1 µM",9.78%
same,"viability, T/C","second compound 3.16 µM, first compound 0.316 µM",9.64%
same,"viability, T/C","second compound 3.16 µM, first compound 1 µM",6.45%
same,"viability, T/C","second compound 3.16 µM, first compound 3.16 µM",5.47%
same,"viability, T/C","second compound 3.16 µM, first compound 10 µM",1.34%
same,"viability, T/C","second compound 10 µM, first compound 0.0316 µM",11.1%
same,"viability, T/C","second compound 10 µM, first compound 0.1 µM",6.83%
same,"viability, T/C","second compound 10 µM, first compound 0.316 µM",5.98%
same,"viability, T/C","second compound 10 µM, first compound 1 µM",5.62%
same,"viability, T/C","second compound 10 µM, first compound 3.16 µM",2.9%
same,"viability, T/C","second compound 10 µM, first compound 10 µM",1.51%
